Assay results from ChEMBL document CHEMBL3763133, “4-Arylbenzenesulfonamides as Human Carbonic Anhydrase Inhibitors (hCAIs): Synthesis by Pd Nanocatalyst-Mediated Suzuki-Miyaura Reaction, Enzyme Inhibition, and X-ray Crystallographic Studies” (J Med Chem, 2016).

Tests used:
[1] = target: Carbonic anhydrase 12 (Homo sapiens, UniProt O43570); assay: Inhibition of human carbonic anhydrase 12 incubated for 15 mins prior to testing by CO2 hydration-based stopped flow assay
[2] = target: T1, Carbonic anhydrase 9 (Homo sapiens, UniProt Q16790); assay: Inhibition of human carbonic anhydrase 9 incubated for 15 mins prior to testing by CO2 hydration-based stopped flow assay
[3] = target: Carbonic anhydrase 2 (Homo sapiens, UniProt P00918); assay: Inhibition of human carbonic anhydrase 2 incubated for 15 mins prior to testing by CO2 hydration-based stopped flow assay
[4] = target: T2, Carbonic anhydrase 1 (Homo sapiens, UniProt P00915); assay: Inhibition of human carbonic anhydrase 1 incubated for 15 mins prior to testing by CO2 hydration-based stopped flow assay
Target sequence in this assay (P00915 whole entry): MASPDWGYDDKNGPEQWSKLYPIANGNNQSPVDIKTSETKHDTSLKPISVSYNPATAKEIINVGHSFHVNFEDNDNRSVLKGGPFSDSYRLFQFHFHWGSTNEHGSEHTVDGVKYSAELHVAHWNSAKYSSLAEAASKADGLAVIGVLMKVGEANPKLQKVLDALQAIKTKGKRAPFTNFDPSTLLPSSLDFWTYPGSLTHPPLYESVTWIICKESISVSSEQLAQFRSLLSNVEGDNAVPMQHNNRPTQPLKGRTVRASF

[5] = target: T1, Carbonic anhydrase 9; assay: Potency index, ratio of Ki for acetazolamide to Ki for test compound for inhibition of human carbonic anhydrase 9
[6] = target: T2, Carbonic anhydrase 1; assay: Potency index, ratio of Ki for acetazolamide to Ki for test compound for inhibition of human carbonic anhydrase 1
Target sequence in this assay (P00915 2-261 limits assumed): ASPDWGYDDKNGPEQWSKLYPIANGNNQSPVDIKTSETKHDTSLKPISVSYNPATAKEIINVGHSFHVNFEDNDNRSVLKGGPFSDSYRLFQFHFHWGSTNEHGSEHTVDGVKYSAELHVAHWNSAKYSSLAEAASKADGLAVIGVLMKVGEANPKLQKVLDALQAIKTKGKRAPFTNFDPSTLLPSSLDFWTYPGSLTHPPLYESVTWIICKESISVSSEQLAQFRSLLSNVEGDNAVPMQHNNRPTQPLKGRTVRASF

Sequence of Carbonic anhydrase 12 (O43570 whole entry): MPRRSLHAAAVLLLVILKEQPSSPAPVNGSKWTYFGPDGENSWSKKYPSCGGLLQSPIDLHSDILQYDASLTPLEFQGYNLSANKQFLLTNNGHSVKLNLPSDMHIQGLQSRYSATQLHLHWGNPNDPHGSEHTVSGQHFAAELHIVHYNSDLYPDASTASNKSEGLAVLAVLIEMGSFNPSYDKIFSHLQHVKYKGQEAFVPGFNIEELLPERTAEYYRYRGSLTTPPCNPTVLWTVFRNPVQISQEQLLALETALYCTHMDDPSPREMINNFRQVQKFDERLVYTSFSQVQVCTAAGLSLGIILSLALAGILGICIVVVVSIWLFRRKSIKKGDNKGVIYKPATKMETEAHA

SMILES	Ki [1] [nM]	Ki [2] [nM]	Ki [3] [nM]	Ki [4] [nM]	Ratio Ki [5]	Ratio Ki [6]
NS(=O)(=O)c1ccc(-c2cccc(-c3ccc(S(N)(=O)=O)cc3)c2)cc1	55.6	276	397	> 10000	–	–
NS(=O)(=O)c1ccc(-c2cc3ccccc3o2)cc1	> 10000	0.37	0.7	185	100	–
NS(=O)(=O)c1ccc(-c2ccc(-c3ccc(Br)cc3)cc2)cc1	54.2	224	764	> 10000	–	–
COc1cc(-c2ccc(S(N)(=O)=O)cc2)cc(OC)c1OC	32.2	259	19.1	9520	–	–
N#Cc1ccc(-c2ccc(S(N)(=O)=O)cc2)cc1	14.2	228	1.2	1340	–	–
Cc1ccccc1-c1ccc(S(N)(=O)=O)cc1	47	–	1.2	3500	–	–
NS(=O)(=O)c1ccc(-c2cn(S(=O)(=O)c3ccccc3)c3ccccc23)cc1	96.7	0.24	0.68	83.6	100	–
NS(=O)(=O)c1ccc(-c2ccc3c(c2)OCO3)cc1	5.2	258	18	> 10000	–	–
CC(C)c1ccccc1-c1ccc(S(N)(=O)=O)cc1	0.58	–	0.98	146	–	–
NS(=O)(=O)c1ccc(-c2cnc3ccccc3c2)cc1	760	0.18	2.5	35.2	100	6
COC(=O)c1cccc(-c2ccc(S(N)(=O)=O)cc2)c1	19.5	159	14.2	6960	–	–
NS(=O)(=O)c1ccc(-c2cc3ccccc3n2S(=O)(=O)c2ccccc2)cc1	33.9	100	11.7	> 10000	–	–
NS(=O)(=O)c1ccc(-c2ccccc2)cc1	92.7	0.21	0.79	41.5	100	6
NS(=O)(=O)c1ccc(-c2cc3ccccc3s2)cc1	> 10000	0.21	0.84	370	100	–
NS(=O)(=O)c1ccc(-c2ccc(Cn3cccn3)cc2)cc1	38.3	216	11.1	6970	–	–
NS(=O)(=O)c1ccc(-c2cccnc2)cc1	20.3	78.1	16.6	2400	–	–
COc1ccc2[nH]c(-c3ccc(S(N)(=O)=O)cc3)cc2c1	415	156	764	2640	–	–
NS(=O)(=O)c1ccc(-c2ccc(-c3ccc(S(N)(=O)=O)cc3)cc2)cc1	4.9	240	324	> 10000	–	–
NS(=O)(=O)c1ccc(-c2cc3ccccc3[nH]2)cc1	5.6	124	10.2	656	–	–
NS(=O)(=O)c1ccc(-c2ccc3[nH]ccc3c2)cc1	65	0.17	0.95	24.5	100	10
Nc1ccc(-c2ccc(S(N)(=O)=O)cc2)cc1	36.5	–	12.3	3700	–	–
NS(=O)(=O)c1ccc(-c2ccc3ccccc3c2)cc1	> 10000	0.22	0.69	1000	100	–
Nc1cccc(-c2ccc(S(N)(=O)=O)cc2)c1	4.3	126	9.3	2340	–	–
NS(=O)(=O)c1ccc(-c2cccc(C=O)c2)cc1	0.58	–	2.1	1180	–	–
